According to ChEMBL document CHEMBL6177990, “Fluorescence-Coupled Ubiquitination Assay as a High-Throughput Screening Strategy for Novel Cereblon Degraders” (J Med Chem, 2025):
One block for each compound: values may come before it. Activity calls are given as the source filed them. No cut-off for these calls is given here.

Legend:
[1] = PROTAC activity at human BRD4 BD1/CRBN assessed as ubiquitination level by measuring unmodified protein by […]
[2] = target: T1, Protein cereblon/Nucleosome-remodeling factor subunit BPTF (Homo sapiens, UniProt Q12830+Q96SW2); assay: PROTAC activity at human BPTF/CRBN assessed as ubiquitination level by measuring unmodified protein by fluorescence-coupled CRBN-based ubiquitination assay
Target sequence in this assay (Q96SW2 whole entry, looked up, other chains not shown): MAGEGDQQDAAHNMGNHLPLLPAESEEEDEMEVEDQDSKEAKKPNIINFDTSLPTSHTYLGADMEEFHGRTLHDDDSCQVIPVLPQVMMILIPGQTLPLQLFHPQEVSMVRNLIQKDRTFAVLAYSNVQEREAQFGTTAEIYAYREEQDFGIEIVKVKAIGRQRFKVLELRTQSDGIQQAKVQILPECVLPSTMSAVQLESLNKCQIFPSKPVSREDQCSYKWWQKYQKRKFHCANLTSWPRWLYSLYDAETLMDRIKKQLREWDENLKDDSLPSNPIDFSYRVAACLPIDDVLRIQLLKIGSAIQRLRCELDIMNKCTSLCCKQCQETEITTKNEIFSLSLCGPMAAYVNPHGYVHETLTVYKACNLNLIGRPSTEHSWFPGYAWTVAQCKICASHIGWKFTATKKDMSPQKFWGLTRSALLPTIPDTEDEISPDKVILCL

[3] = target: T1, Protein cereblon/Nucleosome-remodeling factor subunit BPTF; assay: PROTAC activity at human BPTF/CRBN assessed as degradation of protein by measuring unmodified protein by fluorescence-coupled CRBN-based ubiquitination assay
Target sequence in this assay (Q96SW2 whole entry, other chains not shown): as the sequence (Q96SW2 whole entry, looked up, other chains not shown) above

[4] = target: T2, Protein cereblon/Chromatin remodeling regulator CECR2 (Homo sapiens) (UniProt Q9BXF3+Q96SW2); assay: PROTAC activity at human CECR2/CRBN assessed as degradation of protein by measuring unmodified protein at 20 uM by fluorescence-coupled CRBN-based ubiquitination assay
T2 sequence (Q96SW2 whole entry, looked up): as the sequence (Q96SW2 whole entry, looked up, other chains not shown) above
T2 sequence (Q9BXF3 whole entry, looked up): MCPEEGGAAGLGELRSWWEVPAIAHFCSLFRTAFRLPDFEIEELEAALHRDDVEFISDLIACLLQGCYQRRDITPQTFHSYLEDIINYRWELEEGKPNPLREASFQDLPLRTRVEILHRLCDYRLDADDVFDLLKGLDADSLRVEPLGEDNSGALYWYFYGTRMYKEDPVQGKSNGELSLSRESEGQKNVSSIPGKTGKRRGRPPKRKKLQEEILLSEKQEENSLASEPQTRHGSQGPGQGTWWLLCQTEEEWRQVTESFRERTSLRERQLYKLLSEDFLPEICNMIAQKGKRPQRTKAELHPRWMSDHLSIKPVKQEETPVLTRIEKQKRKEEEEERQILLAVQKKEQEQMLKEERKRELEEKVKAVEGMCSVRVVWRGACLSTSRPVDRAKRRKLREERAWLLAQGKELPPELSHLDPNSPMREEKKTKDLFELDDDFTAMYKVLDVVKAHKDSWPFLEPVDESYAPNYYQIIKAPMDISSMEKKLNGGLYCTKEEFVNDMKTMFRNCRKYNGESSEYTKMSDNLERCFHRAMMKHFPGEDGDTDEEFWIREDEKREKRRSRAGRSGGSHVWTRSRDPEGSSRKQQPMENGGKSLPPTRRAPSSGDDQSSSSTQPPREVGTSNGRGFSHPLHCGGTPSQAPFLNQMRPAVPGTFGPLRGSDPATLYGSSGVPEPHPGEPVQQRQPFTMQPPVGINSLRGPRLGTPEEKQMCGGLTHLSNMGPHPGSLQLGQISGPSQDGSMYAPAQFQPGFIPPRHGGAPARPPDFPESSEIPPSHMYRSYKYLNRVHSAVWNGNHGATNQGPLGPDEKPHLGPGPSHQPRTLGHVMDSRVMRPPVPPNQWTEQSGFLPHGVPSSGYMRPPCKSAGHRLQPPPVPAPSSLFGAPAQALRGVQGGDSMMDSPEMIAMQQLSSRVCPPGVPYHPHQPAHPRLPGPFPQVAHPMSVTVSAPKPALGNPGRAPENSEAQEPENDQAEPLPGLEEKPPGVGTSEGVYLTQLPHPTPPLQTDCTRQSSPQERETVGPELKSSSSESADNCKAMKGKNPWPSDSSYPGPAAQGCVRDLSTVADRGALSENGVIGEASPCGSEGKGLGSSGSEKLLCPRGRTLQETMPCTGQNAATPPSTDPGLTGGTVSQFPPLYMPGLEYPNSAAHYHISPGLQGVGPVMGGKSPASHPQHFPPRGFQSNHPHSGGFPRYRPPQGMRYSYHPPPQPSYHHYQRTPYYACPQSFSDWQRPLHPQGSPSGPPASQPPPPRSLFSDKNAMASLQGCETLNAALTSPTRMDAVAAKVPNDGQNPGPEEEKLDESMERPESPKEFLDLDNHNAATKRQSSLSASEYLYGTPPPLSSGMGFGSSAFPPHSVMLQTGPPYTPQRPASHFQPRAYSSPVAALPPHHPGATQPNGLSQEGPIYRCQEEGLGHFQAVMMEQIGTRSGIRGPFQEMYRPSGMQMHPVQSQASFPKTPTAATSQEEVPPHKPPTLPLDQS

[5] = target: T2, Protein cereblon/Chromatin remodeling regulator CECR2 (Homo sapiens); assay: PROTAC activity at human CECR2/CRBN assessed as degradation of protein by measuring unmodified protein at 10 uM by fluorescence-coupled CRBN-based ubiquitination assay
[6] = target: T1, Protein cereblon/Nucleosome-remodeling factor subunit BPTF; assay: PROTAC activity at human BPTF/CRBN in human MV4-11 cells assessed as degradation of protein measured after 24 hrs by immunoblotting analysis; type: cell-based
Target sequence in this assay (Q96SW2 whole entry, looked up, other chains not shown): as the sequence (Q96SW2 whole entry, looked up, other chains not shown) above

[7] = Inhibition of human BPTF BRD by HTRF assay
[8] = target: T1, Protein cereblon/Nucleosome-remodeling factor subunit BPTF; assay: PROTAC activity at human BPTF/CRBN in human MV4-11 cells assessed as degradation of protein measured after 24 hrs in presence of pomalidomide by immunoblotting analysis; type: cell-based
Target sequence in this assay (Q96SW2 whole entry, looked up, other chains not shown): as above

[9] = Binding affinity to human BPTF BRD assessed as dissociation constant
[10] = target: T1, Protein cereblon/Nucleosome-remodeling factor subunit BPTF; assay: PROTAC activity at human BPTF/CRBN in human MV4-11 cells assessed as degradation of protein pretreated with MLN4924 for 12hrs followed by measured after 24 hrs of compound treatment by immunoblotting analysis; type: cell-based
Target sequence in this assay (Q96SW2 whole entry, looked up, other chains not shown): as above

[11] = target: Protein cereblon/Bromodomain-containing protein 9 (Homo sapiens) (UniProt Q9H8M2+Q96SW2); assay: PROTAC activity at human BRD9/CRBN in human MV4-11 cells assessed as degradation of protein at 20 uM measured after 24 hrs by immunoblotting analysis; type: cell-based
Protein cereblon/Bromodomain-containing protein 9 (Homo sapiens), sequence (Q96SW2 whole entry, looked up): as the sequence (Q96SW2 whole entry, looked up, other chains not shown) above
Protein cereblon/Bromodomain-containing protein 9 (Homo sapiens), sequence (Q9H8M2 whole entry, looked up): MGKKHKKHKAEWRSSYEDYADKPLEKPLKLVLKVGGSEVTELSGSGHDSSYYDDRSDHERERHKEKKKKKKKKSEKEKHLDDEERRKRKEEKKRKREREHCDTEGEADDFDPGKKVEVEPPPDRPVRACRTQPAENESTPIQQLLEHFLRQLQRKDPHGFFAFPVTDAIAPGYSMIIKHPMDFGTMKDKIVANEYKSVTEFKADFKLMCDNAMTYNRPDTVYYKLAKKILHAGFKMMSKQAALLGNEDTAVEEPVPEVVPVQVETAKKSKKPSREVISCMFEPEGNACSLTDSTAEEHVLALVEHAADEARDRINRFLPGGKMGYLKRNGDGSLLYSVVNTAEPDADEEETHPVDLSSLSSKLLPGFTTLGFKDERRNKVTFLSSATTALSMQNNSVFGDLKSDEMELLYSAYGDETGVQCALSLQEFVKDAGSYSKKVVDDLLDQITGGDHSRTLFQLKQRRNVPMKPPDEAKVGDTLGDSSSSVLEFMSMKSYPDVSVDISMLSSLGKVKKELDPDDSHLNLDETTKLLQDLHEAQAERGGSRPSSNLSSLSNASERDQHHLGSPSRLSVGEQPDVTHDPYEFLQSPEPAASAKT

[12] = target: T1, Protein cereblon/Nucleosome-remodeling factor subunit BPTF; assay: PROTAC activity at human BPTF/CRBN assessed as ubiquitination level by measuring unmodified protein in presence of pomalidomide by fluorescence-coupled CRBN-based ubiquitination assay
Target sequence in this assay (Q96SW2 whole entry, looked up, other chains not shown): as the sequence (Q96SW2 whole entry, looked up, other chains not shown) above

[13] = target: Protein cereblon/Histone acetyltransferase KAT2B (Homo sapiens) (UniProt Q92831+Q96SW2); assay: PROTAC activity at human PCAF/CRBN in human MV4-11 cells assessed as degradation of protein at 20 uM measured after 24 hrs by immunoblotting analysis; type: cell-based
Protein cereblon/Histone acetyltransferase KAT2B (Homo sapiens), sequence (Q92831 whole entry, looked up): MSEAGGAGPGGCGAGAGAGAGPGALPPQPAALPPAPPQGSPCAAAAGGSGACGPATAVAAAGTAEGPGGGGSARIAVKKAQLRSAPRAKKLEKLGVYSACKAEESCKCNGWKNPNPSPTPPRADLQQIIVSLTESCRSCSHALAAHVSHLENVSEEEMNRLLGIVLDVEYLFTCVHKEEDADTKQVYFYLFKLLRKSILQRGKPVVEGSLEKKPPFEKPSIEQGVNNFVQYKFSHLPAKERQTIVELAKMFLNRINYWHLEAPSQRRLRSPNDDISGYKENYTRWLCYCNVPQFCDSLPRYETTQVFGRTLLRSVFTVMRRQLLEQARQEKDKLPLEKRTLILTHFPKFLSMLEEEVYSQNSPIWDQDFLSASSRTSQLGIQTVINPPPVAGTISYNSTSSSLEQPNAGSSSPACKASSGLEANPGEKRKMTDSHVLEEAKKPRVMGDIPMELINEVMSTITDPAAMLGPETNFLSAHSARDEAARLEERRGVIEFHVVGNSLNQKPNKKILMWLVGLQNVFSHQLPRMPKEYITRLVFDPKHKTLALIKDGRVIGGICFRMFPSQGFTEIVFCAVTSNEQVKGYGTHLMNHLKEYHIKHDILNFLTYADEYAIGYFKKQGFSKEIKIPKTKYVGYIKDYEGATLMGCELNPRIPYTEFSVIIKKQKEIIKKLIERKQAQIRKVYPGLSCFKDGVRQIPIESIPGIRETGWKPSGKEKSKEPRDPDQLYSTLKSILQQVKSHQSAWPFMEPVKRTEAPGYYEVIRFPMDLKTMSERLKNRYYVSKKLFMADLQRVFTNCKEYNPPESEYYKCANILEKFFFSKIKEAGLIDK
Protein cereblon/Histone acetyltransferase KAT2B (Homo sapiens), sequence (Q96SW2 whole entry, looked up): as the sequence (Q96SW2 whole entry, looked up, other chains not shown) above

[14] = system: MV4-11; assay: Antiproliferative activity against human MV4-11 cells assessed as cell viability measured after 6 days by CellTiter-Glo kit; type: functional, cell-based; settings: MV4-11, 144 h
[15] = target: T2, Protein cereblon/Chromatin remodeling regulator CECR2 (Homo sapiens); assay: PROTAC activity at human CECR2/CRBN in human MV4-11 cells assessed as degradation of protein at 20 uM measured after 24 hrs by immunoblotting analysis; type: cell-based
[16] = target: T1, Protein cereblon/Nucleosome-remodeling factor subunit BPTF; assay: PROTAC activity at human BPTF/CRBN in human MV4-11 cells assessed as degradation of protein at 5 uM measured after 24 hrs by immunoblotting analysis; type: cell-based
Target sequence in this assay (Q96SW2 whole entry, looked up, other chains not shown): as above

SMILES: Cc1sc2c(c1C)C(c1ccc(Cl)cc1)=N[C@@H](CC(=O)Nc1ccc(OCCOCCOCCOCCNc3cccc4c3C(=O)N(C3CCC(=O)NC3=O)C4=O)cc1)c1nnc(C)n1-2 (stereo partly specified)
IC50 [1]: 1250 nM

SMILES: Cc1sc2c(c1C)C(c1ccc(Cl)cc1)=N[C@@H](CC(=O)NCCNc1cccc3c1C(=O)N(C1CCC(=O)NC1=O)C3=O)c1nnc(C)n1-2 (stereo partly specified)
IC50 [1]: 280 nM

SMILES: CCCNc1cc(-c2ccc(OCCCN3CCN(C(=O)CCCCCOc4cccc5c4C(=O)N(C4CCC(=O)NC4=O)C5=O)CC3)c(C#N)c2)nc(S(C)(=O)=O)n1 (stereo unspecified)
Activity [5]: inactive

SMILES: COC(=O)C[C@@H]1N=C(c2ccc(Cl)cc2)c2c(sc(C(=O)NCCCCCCCCNC(=O)COc3cccc4c3C(=O)N(C3CCC(=O)NC3=O)C4=O)c2C)-n2c(C)nnc21 (stereo partly specified)
IC50 [1]: 1150 nM

SMILES: CCCNc1cc(-c2ccc(OCCCN3CCN(C(=O)COc4cccc5c4C(=O)N(C4CCC(=O)N(C)C4=O)C5=O)CC3)c(C#N)c2)nc(S(C)(=O)=O)n1 (stereo unspecified)
Activity [2]: inactive
Activity [16]: inactive

Continued, values first:

Activity [2]: Active
DC50 [3]: 44.6 nM
Activity [4]: inactive
SMILES: CCCNc1cc(-c2ccc(OCCCN3CCN(C(=O)C4CN(c5cccc6c5C(=O)N(C5CCC(=O)NC5=O)C6=O)C4)CC3)c(C#N)c2)nc(S(C)(=O)=O)n1 (stereo unspecified)

Activity [2]: Active
Activity [4]: Active
SMILES: CCCNc1cc(-c2ccc(OCCCN3CCN(C(=O)C4CCN(c5cccc6c5C(=O)N(C5CCC(=O)NC5=O)C6=O)CC4)CC3)c(C#N)c2)nc(S(C)(=O)=O)n1 (stereo unspecified)

Activity [2]: Active
DC50 [3]: 35.1 nM
Activity [6]: Dose-dependent-effect
IC50 [7]: 150 nM
Activity [8]: inactive
Activity [4]: inactive
Kd [9]: 310 nM
Activity [10]: inactive
Activity [11]: inactive
Activity [12]: inactive
Activity [13]: inactive
IC50 [14]: 2710 nM
IC50 [1]: 680 nM
Activity [15]: inactive
SMILES: CCCNc1cc(-c2ccc(OCCCN3CCN(C(=O)COc4cccc5c4C(=O)N(C4CCC(=O)NC4=O)C5=O)CC3)c(C#N)c2)nc(S(C)(=O)=O)n1 (stereo unspecified)

Activity [5]: inactive
SMILES: CCCNc1cc(-c2ccc(OCCCN3CCN(C(=O)CCCCNc4cccc5c4C(=O)N(C4CCC(=O)NC4=O)C5=O)CC3)c(C#N)c2)nc(S(C)(=O)=O)n1 (stereo unspecified)
